Experimental data: ChEMBL document CHEMBL4385603 (J Med Chem, 2019)

Columns and labels:
[1] = target: T1, Induced myeloid leukemia cell differentiation protein Mcl-1 (Homo sapiens, UniProt Q07820)
Description: Inhibition of FITC-labeled Bim peptide binding to His6-tagged MBP-fused Mcl-1 (unknown origin) in presence of 1% fetal bovine serum by fluorescence polarization assay

[2] = target: T1, Induced myeloid leukemia cell differentiation protein Mcl-1; remark: listed apart in the source
Description: Inhibition of FITC-labeled Bim peptide binding to His6-tagged MBP-fused Mcl-1 (unknown origin) by fluorescence polarization assay

[3] = target: Bcl-2-like protein 1 (Homo sapiens, UniProt Q07817)
Description: Inhibition of FITC-labeled Bak peptide binding to Bcl-xL (unknown origin) after 0.5 hrs by fluorescence polarization assay

[4] = test system: K562; assay: cells; conditions: Homo sapiens, K562, 72 h
Description: Antiproliferative activity against Mcl1-insensitive human K562 cells assessed as cell growth inhibition after 72 hrs by Celltiter-glo luminescence assay

[5] = target: T1, Induced myeloid leukemia cell differentiation protein Mcl-1; remark: listed apart in the source
Description: Inhibition of FITC-labeled Bak peptide binding to MBP-fused Mcl-1 (unknown origin) measured after 3 hrs by TR-FRET assay

[6] = target: Apoptosis regulator Bcl-2 (Homo sapiens, UniProt P10415)
Sequence of Apoptosis regulator Bcl-2 (P10415 whole entry): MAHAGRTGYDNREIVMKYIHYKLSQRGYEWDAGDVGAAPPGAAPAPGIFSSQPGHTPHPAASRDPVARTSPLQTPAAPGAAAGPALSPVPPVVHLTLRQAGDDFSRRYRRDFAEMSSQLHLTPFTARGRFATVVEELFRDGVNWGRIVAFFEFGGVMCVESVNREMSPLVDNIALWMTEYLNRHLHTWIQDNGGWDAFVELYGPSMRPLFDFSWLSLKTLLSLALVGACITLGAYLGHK
Description: Inhibition of FITC-labeled Bak peptide binding to Bcl-2 (unknown origin) after 0.5 hrs by fluorescence polarization assay

[7] = target: T1, Induced myeloid leukemia cell differentiation protein Mcl-1; remark: listed apart in the source
Description: Inhibition of FITC-labeled Bak peptide binding to MBP-fused Mcl-1 (unknown origin) measured after 3 hrs in presence of 1% fetal bovine serum by TR-FRET assay

[8] = test system: NCI-H929; assay: cells; conditions: Homo sapiens, NCI-H929, 72 h
Description: Antiproliferative activity against Mcl1-sensitive human NCI-H929 cells assessed as cell growth inhibition after 72 hrs by Celltiter-glo luminescence assay

T1 sequence (Q07820 whole entry): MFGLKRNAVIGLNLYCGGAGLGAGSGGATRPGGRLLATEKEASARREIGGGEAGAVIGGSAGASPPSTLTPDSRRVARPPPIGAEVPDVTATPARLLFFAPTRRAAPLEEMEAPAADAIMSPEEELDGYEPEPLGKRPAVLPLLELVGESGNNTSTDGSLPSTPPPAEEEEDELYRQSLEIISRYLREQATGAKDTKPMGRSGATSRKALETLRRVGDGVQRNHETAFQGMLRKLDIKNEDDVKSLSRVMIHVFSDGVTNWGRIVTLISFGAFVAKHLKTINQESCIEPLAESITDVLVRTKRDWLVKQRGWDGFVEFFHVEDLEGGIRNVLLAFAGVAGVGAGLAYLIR
Sequence of Bcl-2-like protein 1 (Q07817 whole entry): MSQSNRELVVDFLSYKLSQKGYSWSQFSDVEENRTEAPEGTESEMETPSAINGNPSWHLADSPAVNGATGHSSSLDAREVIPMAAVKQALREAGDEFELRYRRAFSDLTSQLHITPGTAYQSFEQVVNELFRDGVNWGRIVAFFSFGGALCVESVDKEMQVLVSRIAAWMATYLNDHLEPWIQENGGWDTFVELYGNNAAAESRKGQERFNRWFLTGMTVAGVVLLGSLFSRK

Structure (SMILES)	Ki [1]	Ki [2]	further results
Cc1cc(OCCCc2c3n(c4c(-c5c(C)nn(C)c5C)c(Cl)ccc24)CCC(C)NC3=O)cc(C)c1Cl (configuration not stated)	> 200 nM	70 nM	
Cc1cc(OCCCc2c3n(c4c(-c5c(C)nn(C)c5C)c(Cl)ccc24)C[C@H](C)N(Cc2ccc(C(=O)O)cc2)C3=O)cc(C)c1Cl	54 nM	9.6 nM	
Cc1cc(OCCCc2c3n(c4c(-c5c(C)nn(C)c5C)c(Cl)ccc24)CCN(Cc2cccc(C(=O)O)c2)C3=O)cc(C)c1Cl	52 nM	9.6 nM	
Cc1cc(OCCCc2c3n(c4c(-c5c(C)nn(C)c5C)c(Cl)ccc24)[C@@H](C)CN(Cc2cccc(C(=O)O)c2)C3=O)cc(C)c1Cl	170 nM	37 nM	
Cc1cc(OCCCc2c3n(c4c(-c5c(C)nn(C)c5C)c(Cl)ccc24)C[C@H](C)N(Cc2cccc(C(=O)O)c2)C3=O)cc(C)c1Cl	97 nM	9.9 nM	
Cc1cc(OCCCc2c3n(c4c(-c5c(C)nn(C)c5C)c(Cl)ccc24)[C@H](C)CN(c2cn(C)c4cc(C(=O)O)ccc24)C3=O)cc(C)c1Cl			Ki [3]: > 40000 nM; GI50 [4]: > 12500 nM; Ki [5]: 0.081 nM; Ki [6]: 500 nM; Ki [7]: 0.38 nM; GI50 [8]: 290 nM
Cc1cc(OCCCc2c3n(c4c(-c5c(C)nn(C)c5C)c(Cl)ccc24)[C@@H](C)CN(Cc2ccc(C(=O)O)cc2)C3=O)cc(C)c1Cl	191 nM	35 nM	
Cc1cc(OCCCc2c3n(c4c(-c5c(C)nn(C)c5C)c(Cl)ccc24)[C@H](C)CN(c2cc(C(=O)O)c4ccn(C)c4c2)C3=O)cc(C)c1Cl			Ki [3]: > 40000 nM; GI50 [4]: > 12500 nM; Ki [5]: 0.21 nM; Ki [6]: 770 nM; Ki [7]: 1.5 nM; GI50 [8]: 820 nM
Cc1cc(OCCCc2c3n(c4c(-c5c(C)nn(C)c5C)c(Cl)ccc24)CCC(C)N(Cc2ccc(C(=O)O)cc2)C3=O)cc(C)c1Cl (configuration not stated)	42 nM	6.6 nM	
Cc1cc(OCCCc2c3n(c4c(-c5c(C)nn(C)c5C)c(Cl)ccc24)CCN(Cc2ccc(C(=O)O)cc2)C3=O)cc(C)c1Cl	51 nM	7.2 nM	
Cc1cc(OCCCc2c3n(c4c(-c5c(C)nn(C)c5C)c(Cl)ccc24)C[C@@H](C)N(Cc2ccc(C(=O)O)cc2)C3=O)cc(C)c1Cl	53 nM	1.8 nM	
Cc1cc(OCCCc2c3n(c4c(-c5c(C)nn(C)c5C)c(Cl)ccc24)CCC(C)N(Cc2cccc(C(=O)O)c2)C3=O)cc(C)c1Cl (configuration not stated)	> 200 nM	12 nM	
Cc1cc(OCCCc2c3n(c4c(-c5c(C)nn(C)c5C)c(Cl)ccc24)C[C@@H](C)NC3=O)cc(C)c1Cl	151 nM	27 nM	
Cc1cc(OCCCc2c3n(c4c(-c5c(C)nn(C)c5C)c(Cl)ccc24)CC(C)CNC3=O)cc(C)c1Cl (configuration not stated)	150 nM	42 nM	
Cc1cc(OCCCc2c3n(c4c(-c5c(C)nn(C)c5C)c(Cl)ccc24)[C@H](C)CN(c2ccc(C(=O)O)cc2)C3=O)cc(C)c1Cl			Ki [3]: > 40000 nM; GI50 [4]: > 12500 nM; Ki [5]: 1.3 nM; Ki [6]: 690 nM; Ki [7]: 4.5 nM; GI50 [8]: 4000 nM
Cc1cc(OCCCc2c3n(c4c(-c5c(C)nn(C)c5C)c(Cl)ccc24)C[C@H](C)N(Cc2ccc(C(=O)O)o2)C3=O)cc(C)c1Cl	150 nM	8.7 nM	
Cc1cc(OCCCc2c3n(c4c(-c5c(C)nn(C)c5C)c(Cl)ccc24)[C@H](C)CN(c2cccc(C(=O)O)c2)C3=O)cc(C)c1Cl			Ki [3]: > 40000 nM; GI50 [4]: > 12500 nM; Ki [5]: 1.4 nM; Ki [6]: 990 nM; Ki [7]: 2.6 nM; GI50 [8]: 4400 nM
Cc1cc(OCCCc2c3n(c4c(-c5c(C)nn(C)c5C)c(Cl)ccc24)C[C@@H](C)N(Cc2cccc(C(=O)O)c2)C3=O)cc(C)c1Cl	67 nM	2.1 nM	

Structure (SMILES)	Ki [1]	Ki [2]	further results
Cc1cc(OCCCc2c3n(c4c(-c5c(C)nn(C)c5C)c(Cl)ccc24)C[C@@H](C)N(Cc2ccc(C(=O)O)o2)C3=O)cc(C)c1Cl	39 nM	5.9 nM	
Cc1cc(OCCCc2c3n(c4c(-c5c(C)nn(C)c5C)c(Cl)ccc24)[C@H](C)CN(c2cc(C(=O)O)cc4c2OCO4)C3=O)cc(C)c1Cl			Ki [3]: 25000 nM; GI50 [4]: > 12500 nM; Ki [5]: 0.42 nM; Ki [6]: 630 nM; Ki [7]: 1.4 nM; GI50 [8]: 1700 nM
Cc1cc(OCCCc2c3n(c4c(-c5c(C)nn(C)c5C)c(Cl)ccc24)[C@H](C)CN(c2cccc4c(C(=O)O)cccc24)C3=O)cc(C)c1Cl			Ki [3]: 26000 nM; GI50 [4]: 2500 nM; Ki [5]: 0.33 nM; Ki [6]: 380 nM; Ki [7]: 0.77 nM
Cc1cc(OCCCc2c3n(c4c(-c5c(C)nn(C)c5C)c(Cl)ccc24)C(C)CCNC3=O)cc(C)c1Cl (configuration not stated)	> 200 nM	43 nM	
Cc1cc(OCCCc2c3n(c4c(-c5c(C)nn(C)c5C)c(Cl)ccc24)[C@H](C)CN(Cc2ccc(C(=O)O)o2)C3=O)cc(C)c1Cl	26 nM	1 nM	
Cc1cc(OCCCc2c3n(c4c(-c5c(C)nn(C)c5C)c(Cl)ccc24)[C@H](C)CN(Cc2cccc(C(=O)O)c2)C3=O)cc(C)c1Cl	26 nM	1.1 nM	
Cc1cc(OCCCc2c3n(c4c(-c5c(C)nn(C)c5C)c(Cl)ccc24)[C@@H](C)CN(Cc2ccc(C(=O)O)o2)C3=O)cc(C)c1Cl	193 nM	22 nM	
Cc1cc(OCCCc2c3n(c4c(-c5c(C)nn(C)c5C)c(Cl)ccc24)CCC(C)N(Cc2ccc(C(=O)O)o2)C3=O)cc(C)c1Cl (configuration not stated)	120 nM	8.2 nM	
Cc1cc(OCCCc2c3n(c4c(-c5c(C)nn(C)c5C)c(Cl)ccc24)CCCNC3=O)cc(C)c1Cl	101 nM	12 nM	
Cc1cc(OCCCc2c3n(c4c(-c5c(C)nn(C)c5C)c(Cl)ccc24)CC(C)CN(Cc2ccc(C(=O)O)o2)C3=O)cc(C)c1Cl (configuration not stated)	81 nM	7.6 nM	
Cc1cc(OCCCc2c3n(c4c(-c5c(C)nn(C)c5C)c(Cl)ccc24)CCN(Cc2ccc(C(=O)O)o2)C3=O)cc(C)c1Cl	137 nM	5.8 nM	
Cc1cc(OCCCc2c3n(c4c(-c5c(C)nn(C)c5C)c(Cl)ccc24)[C@H](C)CN(c2cc(C(=O)O)cc4c2ccn4C)C3=O)cc(C)c1Cl			Ki [3]: > 40000 nM; GI50 [4]: > 12500 nM; Ki [5]: 1.3 nM; Ki [6]: 630 nM; Ki [7]: 6.8 nM; GI50 [8]: 2100 nM
Cc1cc(OCCCc2c3n(c4c(-c5c(C)nn(C)c5C)c(Cl)ccc24)CCNC3=O)cc(C)c1Cl	> 200 nM	35 nM	
Cc1cc(OCCCc2c3n(c4c(-c5c(C)nn(C)c5C)c(Cl)ccc24)CC(C)CN(Cc2ccc(C(=O)O)cc2)C3=O)cc(C)c1Cl (configuration not stated)	22 nM	7.1 nM	
Cc1cc(OCCCc2c3n(c4c(-c5c(C)nn(C)c5C)c(Cl)ccc24)CC(C)CN(Cc2cccc(C(=O)O)c2)C3=O)cc(C)c1Cl (configuration not stated)	144 nM	11 nM	
Cc1cc(OCCCc2c3n(c4c(-c5c(C)nn(C)c5C)c(Cl)ccc24)[C@H](C)CN(Cc2ccc(C(=O)O)cc2)C3=O)cc(C)c1Cl	6.7 nM	0.77 nM	
Cc1cc(OCCCc2c3n(c4c(-c5c(C)nn(C)c5C)c(Cl)ccc24)C[C@H](C)NC3=O)cc(C)c1Cl	145 nM	73 nM	
